Legend:
SW620^Gal3− cells [1] = experiment: Tumour growth and metastasis in chick chorioallantoic membrane (CAM) model; assay type: in vivo, chicken embryos; settings: 24 μM; Galectin-3-suppressed SW620^Gal3−
Method: (§1) Effect of the compound of Formula I on tumour formation, growth and metastasis of SW620Gal3+ and SW620Gal3− cells was assessed in the chick chorioallantoic membrane (CAM) model. Galectin-3-expressing SW620^Gal3+ and Galectin-3-suppressed SW620^Gal3− cells were transfected with pHIV-Luc-ZsGreen vector and engrafted to the CAM on embryonic day 7. The compound of Formula I (24 μM) was injected into the allantoic cavity on the following day and the tumour formation and growth was analysed by fluorescence microscopy (FIG. 10A) and IVIS imaging (FIGS. 10B-FIG. 10D) on embryonic day 14. Seventy percent eggs grafted with Galectin-3-expressing SW620^Gal3+ cells formed various sized tumours in the absence of Formula I while the number of eggs formed in the Formula I treated group was reduced to 30%.
as §1, with “SW620Gal3−” for “SW620Gal3− cells”, “SW620^Ga13−” for “SW620^Gal3−”
(§2) Fertilised white leghorn chicken eggs were obtained from Lees Lane Poultry (Wirral, UK). The eggs were windowed on embryonic Day 3 with 4 ml albumin removed. The eggs were incubated at 37° C. in 35-40% humidity until embryonic day 7. ZsGreen- and luciferase-expressing SW620Gal3+ and SW620Gal3− cells (2.5×10^6) were then embedded on the chorioallantoic membrane (CAM). On embryonic Days 8 and 11, the inhibitors (24 μM) or control DMSO/PBS were injected into the allantoic cavity. The eggs were incubated until embryonic Day 14 The eggs were imaged using a Microscope as well as by IVIS. The embryos were then immediately decapitated. Organs were examined under fluorescence microscope for presence of ZsGreen-labelled tumour cells. Ethical approval for the experiments using chick embryos up to embryonic Day 14 was obtained from the Liverpool Animal Welfare and Ethical Review Body.

SW620^Gal3+ cells [2] = experiment: as above; assay type: in vivo, chicken embryos
Method: as §1
as §1, with “SW620Gal3−” for “SW620Gal3− cells”, “SW620^Ga13−” for “SW620^Gal3−”
as §2

[3] = test system: THP-1 differentiated macrophages; experiment: Galectin-3-induced pro-inflammatory cytokine secretion, cytokine ELISA; assay type: cell-based; settings: Galectin-3 10 μg/ml, various concentrations
Method: Secretion of pro-inflammatory cytokines IL-6 (FIG. 7A), IL-1β (FIG. 7B) and TNFα (FIG. 7C) from THP-1 differentiated macrophages was analysed in the absence or presence of Galectin-3 (10 μg/ml) and various concentrations of the compound of Formula I by cytokine ELISA.
THP-1 monocytes (5×10^5 cells/ml) were differentiated into macrophages by incubation with 10 ng/ml Phorbol 12-myristate-13-acetate (PMA) for 48 h at 37° C. The differentiated cells were washed gently with medium before introduction of fresh medium without or with 10 μg/ml Galectin-3, and/or different concentrations of the inhibitors for 24 h at 37° C. The culture medium was collected and the concentrations of IL-6, TNFα and IL1β in the medium were measured by IL-6, TNFα and IL1β ELISA kits according to the manufacture's protocols.

SW620^Gal3− cells [4] = experiment: Tumour cell metastatic spread in mice (intravenous inoculation); assay type: in vivo, Balb/c nude mice; settings: 10 mg/kg/day subcutaneously; Galectin-3-suppressed SW620^Gal3− cells
Method: (§3) The compound of Formula I effect on cancer metastasis was assessed in Balb/c nude mice. Luciferase-transfected, Galectin-3-expressing colon cancer SW620^Gal3+ and Galectin-3-suppressed SW620^Gal3− cells were inoculated to mice intravenously and the compound of Formula I was administrated subcutaneously, 10 mg/kg/day for 3 consecutive days in the first week and then once every week. Metastasis was monitored by IVIS imaging. […] The animals were sacrificed five weeks after tumour cell inoculation and the number of metastasis nodules on the surface of the animal lungs were quantified (FIG. 12B). Administration of the compound of Formula I caused 88% reduction of lung metastasis of Galectin-3-expressing SW620^Gal3+ cells but had little effect on Galectin-3-suppressed SW620^Gal3− cells;
as §3, with “for 5” for “for 3”, “first” for “first week and then once every”, “Galectin-3-suppressed SW620^Gal3 cells.” for “Galectin-3-suppressed SW620^Gal3− cells;”
(§4) Female Balb/c nude mice aged 6-7 weeks were purchased from Charles River Laboratories (Margate, UK) and maintained in specific pathogen-free conditions with a 12:12 hour light:dark cycle. All animal studies were conducted with UK Home Office and local ethics committee approval.
(§5) Thirty-two mice were randomly divided into four groups (A to D). […] Tumour number on the surface of the lungs was assessed using a dissection microscope.

SW620^Gal3+ cells [5] = experiment: as above; assay type: in vivo, Balb/c nude mice; settings: 10 mg/kg/day subcutaneously
Method: as §3
as §3, with “for 5” for “for 3”, “first” for “first week and then once every”, “Galectin-3-suppressed SW620^Gal3 cells.” for “Galectin-3-suppressed SW620^Gal3− cells;”
as §4, §5

Structure (SMILES): C[C@H]1COc2c(N3CCN(C)CC3)c(F)cc3c(=O)c(C(=O)NNc4ccc(N)cc4)cn1c23 [Formula I]
- tumour formation or growth (SW620^Gal3− cells [1]): no effect
- number of eggs that formed tumours (SW620^Gal3+ cells [2]; 24 μM into allantoic cavity, embryonic day 14, 70% without Formula I): 30%
- reduction of luminescence intensity in the tumours (SW620^Gal3+ cells [2]; 24 μM, IVIS imaging, embryonic day 14, vs group without Formula I): 66%
- tumours showing metastasis to other organs (SW620^Gal3+ cells [2]; 24 μM, 25% in the absence of Formula I): none
- Galectin-3-induced secretion of IL-1β [3]: dose-dependent inhibition
- Galectin-3-induced secretion of IL-6 [3]: dose-dependent inhibition
- Galectin-3-induced secretion of TNFα [3]: dose-dependent inhibition
- effect on lung metastasis (SW620^Gal3− cells [4]): little effect
- lung metastasis in IVIS imaging (SW620^Gal3+ cells [5]; 14 days after tumour cell inoculation): Substantially lower
- reduction of lung metastasis (metastasis nodules on lung surface) (SW620^Gal3+ cells [5]; five weeks after tumour cell inoculation): 88%

Source: patent publication US20260137696A1, “Compositions Comprising an Inhibitor of Galectin-3” (University of Liverpool, priority 2023, published 2026)
